Results published in US10864216B2, “Phenothiazine diaminium salts and their use” (WisTa Laboratories Ltd., priority 2011, dated 2020).

What was measured:
[1] = Solubility of LMT salts in aqueous HCl solutions at 37° C.; format: physicochemical; conditions: aqueous HCl solution pH 2.00 (21.4° C.); lower limit complete dissolution, upper limit saturation
Procedure: Two aqueous solutions (pH 2.00 and 3.01 at 21.4° C.) were prepared by carefully adding HCl (5 M) to deionised water. In each experiment a 5 ml aliquot of one of the aforementioned solutions was heated to 37° C. […] This step was repeated until no further dissolution took place.

[2] = pH dependence of solubility of LMT.2MsOH in buffered aqueous solutions at 25° C.; format: physicochemical; conditions: aqueous buffer, thermodynamic from solid
Procedure: In related experiments three buffered stock solutions were prepared (pH 2, pH 3, and pH 7) as follows: A solution of (0.2 M) potassium chloride (KCl) (0.745 g in 50 mL of deionised water) was initially prepared. From this solution 50 mL was taken and diluted with approximately 80 mL of deionised water. A (0.2 M) hydrochloric acid (HCl) solution was then used to adjust the pH to 2, before further dilution with deionised water to make up to 200 mL. A final pH of 2.00 at 21.6° C. was recorded. A solution of (0.1 M) potassium hydrogen phthalate (2.042 g in 100 mL of deionised water) was initially prepared. From this solution 100 mL was taken and diluted with approximately 50 mL of deionised water. A 0.2 M HCl solution was then used to adjust the pH to 3, before further dilution with deionised water to make up to 200 mL. A final pH of 2.99 at 21.7° C. was recorded. A solution of (0.1 M) potassium phosphate monobasic (KH2PO4) (1.370 g in 100 mL of deionised water) was initially prepared. From this solution 100 mL was taken and diluted with approximately 80 mL of deionised water. A 0.5 M sodium hydroxide (NaOH) solution was then used to adjust the pH to 7, before further dilution with deionised water to make up to 200 mL. A final pH of 7.07 at 22° C. was recorded. […] This vial was placed into a water bath set at 25° C. To the solution was added LMT.2MsOH in 1-1.5 g portions. After each addition, a 10 minutes stir time was allowed to ensure maximum opportunity for dissolution. The homogeneity of the mixture was judged by eye. If solid was still present, after the stir time, as judged by visual inspection, the saturation point was judged to have been reached. The viscosity of the resulting mixtures precluded adequate isolation of the excess solid, therefore it was not possible to determine exact solubility values.

[3] = molecular target: T1, truncated tau (amino acids 297-391) in solution binding to solid-phase bound truncated tau (residues 297-390) (Homo sapiens, UniProt P10636); assay: Solid phase assay for tau aggregation (tau-tau binding, B50); conditions: concentration at which tau-tau binding is decreased by 50%; mean ± SE
T1 construct: made in house
Text: The tau-tau aggregation assay uses purified recombinant tau fragments in a solid-phase immunoassay. Methods are described in detail in e.g. WO 96/30766. Briefly, the assay measures the binding of truncated tau (amino acids 297-391) in solution to solid-phase bound truncated tau (residues 297-390). Binding of the former is detected with the antibody mAb 423, which specifically recognises peptides containing a C-terminal Glu-391 residue. The Tau complex formed in vitro is similar to the aggregated complex that forms in Alzheimer's disease as a consequence of the stability of the pathological Tau-Tau binding interaction through a 94/95-amino acid repeat domain (residues 297-390), found in the proteolytically stable core of the paired helical filament.
The B50 value (expressed as mean±SE) is determined as the concentration of compound at which tau-tau binding is decreased by 50%.

female Wistar rats = assay: 14 day oral administration to rats: toxicology and neutrophil response; format: in vivo
Text: Table: Neutrophil response in rats following 14 day oral administration of different salt forms of LMT.

rats = assay: Studies on the hemopoietic system (methemoglobinemia), rat; format: in vivo
minipigs = assay: Studies on the hemopoietic system (methemoglobinemia), minipig; format: in vivo
Procedure: Studies on the hemopoietic system were performed in rat, monkey and minipig.

[4] = Pharmacokinetics: plasma concentration of the MT moiety in pig; format: in vivo; conditions: oral doses 2 and 15 mg/kg
[5] = tested on: rat, stomach (non glandular); assay: Gastric irritation: 28-day rat study with LMT.2MsOH; format: in vivo; parameters: key to Gastritis, grade 2 (slight): incidence / Gastritis, grade 3 (moderate): incidence / Gastritis, total incidence / Inflammatory cell infiltration, grade 1 (minimal): incidence / Inflammatory cell infiltration, grade 2 (slight): incidence / Gastritis, grade 1 (minimal): incidence: “—” = finding not present; 1 = minimal; 2 = slight; 3 = moderate; 4 = moderately severe; 5 = severe; conditions: for Gastritis, total incidence / Gastritis, grade 1 (minimal): incidence / Gastritis, grade 2 (slight): incidence / Gastritis, grade 3 (moderate): incidence / Inflammatory cell infiltration, grade 1 (minimal): incidence / Inflammatory cell infiltration, grade 2 (slight): incidence: 90 mg/kg/day, 28-day, 10 examined; for Gastritis, total incidence: number of animals; for Gastritis, grade 1 (minimal): incidence / Gastritis, grade 2 (slight): incidence / Gastritis, grade 3 (moderate): incidence / Inflammatory cell infiltration, grade 1 (minimal): incidence / Inflammatory cell infiltration, grade 2 (slight): incidence: terminal kill, cell = number of animals
Text: Study (28-day rat study with LMT.2MsOH): Incidence and severity of selected microscopic findings in sternum, liver, spleen and stomach from terminal animals

[6] = Dynamic vapour sorption (DVS); format: physicochemical; conditions: crystalline, 25° C., relative humidity range between 0% and 70%
Procedure: FIGS. 15a and 15b show the dynamic vapour sorption (DVS) curve for crystalline LMT.2MsOH measured at 25° C. with 5%/h scanning rate. The horizontal dashed lines indicate steps of water uptake of one equivalent. […] Above this r.h., the water uptake increased rapidly, and the sample ultimately deliquesced. Upon drying, the water content decreased again to approximately 4 equiv. at 50% r.h.
Projekt Messtechnik SPS 11-100n water vapor sorption analyzer. The samples were placed in aluminum crucibles on top of a microbalance and were equilibrated at 25° C. and 50% r.h. before starting a pre-defined humidity program at 25° C. (50-0-95-50% r.h., scanning with Δ r.h.=5% h^−1 and with ‘isohumid’ equilibration periods at the extreme values).

[7] = molecular target: full-length human tau protein (htau40) and truncated tau (295-390, dGA) in 3T6 mouse cells (Homo sapiens, UniProt P10636); assay: Cell-based tau aggregation assay

T1 sequence (P10636 614-708): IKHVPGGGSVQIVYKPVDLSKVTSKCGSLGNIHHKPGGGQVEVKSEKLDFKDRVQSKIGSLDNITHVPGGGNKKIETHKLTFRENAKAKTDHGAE
T1 sequence (P10636 614-707): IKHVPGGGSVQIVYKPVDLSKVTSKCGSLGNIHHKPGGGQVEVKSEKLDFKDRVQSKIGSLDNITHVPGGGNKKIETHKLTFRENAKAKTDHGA

## CN(C)c1ccc2c(c1)Sc1cc(N(C)C)ccc1N2.CS(=O)(=O)O.CS(=O)(=O)O [LMT.2MsOH, N,N,N′,N′-tetramethyl-10H-phenothiazine-3,7-diaminium bis(methanesulfonate)]
[1]
  Solubility g/5 ml (37° C.): 8.825-9.943 g/5 ml
[2]; buffered aqueous solution pH 2.00, 25° C.
  solubility at 10 min: 1600 to 1770 mg/mL
[2]; buffered aqueous solution pH 2.99, 25° C.
  solubility at 10 min: 1980 to 2090 mg/mL
[2]; buffered aqueous solution pH 7.07, 25° C.
  solubility at 10 min: 2030 to 2110 mg/mL
[3]
  IC50: 238 ± 74.2 µM
Female Wistar rats; 14 days
  Neutropaenia in prepared blood smears (mature neutrophils): no decrease
Female Wistar rats; 14 days oral, 95 mg MT/kg/day Days 1-10, 60 mg MT/kg/day Days 11-14
  Neutrophils (total neutrophils as percentage of total white cells): 18.30%
Female Wistar rats; 14 days oral, animal numbers per group of 8 rats
  Dose-related deaths: 0/8
Female Wistar rats; 14 days oral, animals per group of 8
  Early neutrophils (frequency of presence of immature neutrophils per animal group): 1/8
rats
  Lowest dose at which methemoglobinemia was observed: 30 mg MT/kg/day
minipigs
  Lowest dose at which methemoglobinemia was observed: 10 mg MT/kg/day
minipigs; 3 mg MT/kg/day, first 28-days of dosing in the 9-month study
  Methemoglobinemia: no indications of methemoglobinemia
[4]
  Cmax of MT moiety in plasma, fold greater than that for LMT.2HCl or LMT.2HBr: more than 2 fold
[4]; plasma
  Tmax: 1 h
[5]; 28-day rat studies
  Gastric irritation compared with LMT.2HBr: less gastric irritation
[5]; female rats
  Gastritis, total incidence: 3
  Gastritis, grade 1 (minimal): incidence: —
  Gastritis, grade 2 (slight): incidence: 2
  Gastritis, grade 3 (moderate): incidence: 1
  Inflammatory cell infiltration, grade 1 (minimal): incidence: 4
  Inflammatory cell infiltration, grade 2 (slight): incidence: 1
[5]; male rats
  Gastritis, total incidence: 2
  Gastritis, grade 1 (minimal): incidence: —
  Gastritis, grade 2 (slight): incidence: 2
  Gastritis, grade 3 (moderate): incidence: —
  Inflammatory cell infiltration, grade 1 (minimal): incidence: 4
  Inflammatory cell infiltration, grade 2 (slight): incidence: —
[6]
  Weight change in dynamic vapour sorption: less than 0.5%
[7]
  EC50: 0.19 ± 0.04 µM
  therapeutic index greater compared with MTC: 63%
[7]; LD50/EC50
  THx, therapeutic index (THx = LD50/EC50): 179
